Experimental data as given in patent US20250089717A1, “FUNGICIDAL HALOMETHYL KETONES, HYDRATES AND ENOL ETHERS AND THEIR MIXTURES” (FMC CORPORATION, priority 2023, published 2025).

Test system: Phakopsora pachyrhizi
Assay: Test A: preventive spray on soybean seedlings, Asian soybean rust, visual disease rating
Assay type: in vivo
Settings: rate 10 ppm
From the text: General protocol for preparing test suspensions for Test A: the test compounds were first dissolved in acetone in an amount equal to 3% of the final volume and then suspended at the desired concentration (in ppm) in acetone and purified water (50/50 mix by volume) containing 250 ppm of the surfactant PEG400 (polyhydric alcohol esters). The resulting test suspensions were then used in Test A.
The test solution was sprayed to the point of run-off on soybean seedlings. The following day the seedlings were inoculated with a spore suspension of Phakopsora pachyrhizi (the causal agent of Asian soybean rust) and incubated in a saturated atmosphere at 22° C. for 24 h and then moved to a growth chamber at 22° C. for 8 days, after which time visual disease ratings were made.
A rating of 100 indicates 100% disease control and a rating of 0 indicates no disease control (relative to the controls).

SMILES	Test A rating (100 = 100% disease control, 0 = no disease control relative to the controls)
C=CCON(CC)C(=O)c1cnn(Cc2ccc(O/C=C(\OCC)C(F)(F)F)cc2)c1 [compound 41]	94%
C=CCON=C(OCCCC)c1cnn(Cc2ccc(O/C=C(\OCC)C(F)(F)F)cc2)c1 [compound 42]	96%
C=CCON(CCCC)C(=O)c1cnn(Cc2ccc(O/C=C(\OCC)C(F)(F)F)cc2)c1 [compound 43]	87%
C#CCC(=O)OCc1cnn(Cc2ccc(O/C=C(\OCC)C(F)(F)F)cc2)c1 [compound 44]	100%
CCO/C(=C\Oc1ccc(Cn2cc(COC(=O)CC(C)(C)C)cn2)cc1)C(F)(F)F [compound 49]	99%
CCO/C(=C\Oc1ccc(Cn2cc(COC(=O)C3CC3)cn2)cc1)C(F)(F)F [compound 51]	100%
CCOC(=O)OCc1cnn(Cc2ccc(O/C=C(\OCC)C(F)(F)F)cc2)c1 [compound 53]	100%
CCO/C(=C\Oc1ccc(Cn2cc(C(N)=NO)cn2)cc1)C(F)(F)F [compound 56]	84%
CCO/C(=C\Oc1ccc(Cn2cc(COCC3(C)CC3)cn2)cc1)C(F)(F)F [compound 57]	100%
CCO/C(=C\Oc1ccc(Cn2cc(COC3CCC3)cn2)cc1)C(F)(F)F [compound 59]	100%
C=CCONC(=O)c1cnn(CCCc2ccc(O/C=C(\OCC)C(F)(F)F)cc2)c1 [compound 60]	96%
C=CCON=C(OCC)c1cnn(CCc2ccc(O/C=C(\OCC)C(F)(F)F)cc2)c1 [compound 61]	100%
C=CCONC(=O)c1cnn(CCc2ccc(O/C=C(\OCC)C(F)(F)F)cc2)c1 [compound 62]	100%
CCO/C(=C\Oc1ccc(Cn2cc(COCC3CCCC3)cn2)cc1)C(F)(F)F [compound 63]	100%
CCO/C(=C\Oc1ccc(Cn2cc(COCC3CC3)cn2)cc1)C(F)(F)F [compound 64]	100%
C#CCOCc1cnn(Cc2ccc(O/C=C(\OCC)C(F)(F)F)cc2)c1 [compound 65]	100%
C=CCOCc1cnn(Cc2ccc(O/C=C(\OCC)C(F)(F)F)cc2)c1 [compound 66]	100%
CCO/C(=C\Oc1ccc(Cn2cc(C(=O)NOCCO)cn2)cc1)C(F)(F)F [compound 67]	100%
CCO/C(=C\Oc1ccc(Cn2cccc(C(=O)NOCC#N)c2=O)cc1)C(F)(F)F [compound 98]	99%
C#CCON(C)C(=O)c1cccn(Cc2ccc(O/C=C(\OCC)C(F)(F)F)cc2)c1=O [compound 99]	92%
C#CCONC(=O)c1cccn(Cc2ccc(O/C=C(\OCC)C(F)(F)F)cc2)c1=O [compound 100]	98%
CCO/C(=C\Oc1ccc(Cn2cccc(C(=O)N(C)OCCOC)c2=O)cc1)C(F)(F)F [compound 101]	94%
CCO/C(=C\Oc1ccc(Cn2cccc(C(=O)N(C)OCC3CC3)c2=O)cc1)C(F)(F)F [compound 102]	99%
CCO/C(=C\Oc1ccc(Cn2cccc(C(=O)NOCCOC)c2=O)cc1)C(F)(F)F [compound 103]	97%
CCO/C(=C\Oc1ccc(Cn2cccc(C(=O)NOCC3CC3)c2=O)cc1)C(F)(F)F [compound 104]	100%

Same assay, conditions: rate 10 ppm, read-out: Test A rating (100 = 100% disease control, 0 = no disease control relative to the controls)

SMILES	pest or weed control at 10 ppm
C=CCO/N=C(/OCC)c1ccn(Cc2ccc(O/C=C(\OCC)C(F)(F)F)cc2)n1 [compound 110]	99%
C=CCONC(=O)c1ccn(Cc2ccc(O/C=C(\OCC)C(F)(F)F)cc2)n1 [compound 111]	100%
CCO/C(=C\Oc1ccc(Cc2nc(C(=O)NOCCOC)cs2)cc1)C(F)(F)F [compound 112]	100%
C=CCO/N=C(/OCC)c1cnn(Cc2cccc(O/C=C(\OCC)C(F)(F)F)c2)c1 [compound 113]	87%
C=CCONC(=O)c1cnn(Cc2cccc(O/C=C(\OCC)C(F)(F)F)c2)c1 [compound 114]	100%
C=CCONC(=O)c1ccn(Cc2ccc(O/C=C(\OCC)C(F)(F)F)cc2)c1 [compound 115]	96%
CCO/C(=C\Oc1ccc(Cc2nc(C(=O)NOCC3CC3)cs2)cc1)C(F)(F)F [compound 116]	100%
C=CCONC(=O)c1csc(Cc2ccc(O/C=C(\OCC)C(F)(F)F)cc2)n1 [compound 117]	100%
C=CCO/N=C(\OCC)c1cc(Cc2ccc(O/C=C(\OCC)C(F)(F)F)cc2)ccn1 [compound 118]	100%
CCO/C(=C\Oc1ccc(Cc2cccc(C(=O)N(C)OCc3ccccc3)n2)cc1)C(F)(F)F [compound 122]	100%
CCO/C(=C\Oc1ccc(Cc2cccc(C(=O)NOCc3ccccc3)n2)cc1)C(F)(F)F [compound 126]	99%
C=CCONC(=O)c1cc(Cc2ccc(OCC3(C(F)(F)F)OCCO3)cc2)ccn1 [compound 129]	98%
C=CCON(C)C(=O)c1cc(Cc2ccc(OCC3(C(F)(F)F)OCCO3)cc2)ccn1 [compound 130]	99%
C#CCO/N=C(\OC)c1cccc(Cc2ccc(O/C=C(\OCC)C(F)(F)F)cc2)n1 [compound 134]	99%
C=CCON(C)C(=O)c1cc(Cc2ccc(O/C=C(\OCC)C(F)(F)F)cc2)ccn1 [compound 135]	100%

Same assay, conditions: rate 250 ppm, read-out: Test A rating (100 = 100% disease control, 0 = no disease control relative to the controls)

SMILES	pest or weed control at 250 ppm
C=CCON(CC)C(=O)c1cccc(Cc2ccc(O/C=C(\OCC)C(F)(F)F)cc2)c1 [compound 128]	100%
